Test results as given in patent publication US10570179B2, “Substituted urea depsipeptide analogs as activators of the CLPP endopeptidase” (priority 2016, dated 2020).
In brackets after ≈: the same amount, converted by molar mass. Where two headings read alike, the source gives them in different places. Numbered stars: 1 amine (or outer) side, 2 acyl side, 3 side chain; on linkers, the order of the positions; unused ones are H or OH. Bridge positions count the residues as written; N and C are the ends. Square brackets hold non-standard residues; d marks the D form. Peptide text beside a SMILES is read from it. * marks the point of attachment. Piperazine(2S-CO,4-Me) = CN1CCN[C@H](C(=O)O)C1; Phe(3-Me) = Cc1cccc(C[C@H](N)C(=O)O)c1; Pro(4S-Me) = C[C@@H]1CN[C@H](C(=O)O)C1; X4 = O=C1CN([*:1])[C@H](C(=O)[*:2])CN1; NH(4-Cl-2-F-phenyl) = Fc1cc(Cl)ccc1N*; Pro(4R-Me) = C[C@H]1CN[C@H](C(=O)O)C1; Hyp = O=C(O)[C@@H]1C[C@@H](O)CN1; NH(4-Me-phenyl) = Cc1ccc(N*)cc1; aThr = C[C@H](O)[C@H](N)C(=O)O; Pip = O=C(O)[C@@H]1CCCCN1; X3 = c1cc2c(cc1N*)OCCO2; CO = O=C([*:1])[*:2]

What was measured:
E. faecails = test: Minimal inhibitory concentration, microbroth dilution; type: cell-based; conditions: Enterococcus faecalis
How it was run: (§1)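 Compound was diluted twofold in the appropriate broth. Bacterial suspension (approx. 10^5 cfu/mL) was then added in equal volume, giving a maximum test concentration of 200 μM. After aerobic overnight incubation at 37 °C, wells were inspected visually for growth.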

S. aureus USA 300 = test: as above; type: cell-based; conditions: Staphylococcus aureus
How it was run: as §1

MRSA NRS70 = test: as above; type: cell-based; conditions: Staphylococcus aureus
How it was run: as §1

[1] = Plasma protein binding, rapid equilibrium dialysis; type: in vitro ADME, human; conditions: 10 μM
Description: This assay determines plasma protein binding of a drug/compound and free drug concentration in plasma using rapid equilibrium dialysis, which allow the aqueous component of plasma containing the free drug/compound through a dialysis membrane (MWCO˜8,000).
Solutions were prepared at 10 mM in DMSO. Dulbecco's phosphate buffered saline (DPBS; pH 7.4) was obtained from Invitrogen (Carlsbad, Calif.). Single-Use RED (rapid equilibrium dialysis) device was obtained from Thermo scientific (Rockford, Ill.). Human plasma was obtained from Innovative Research INC (Novi, Michigan, Ill).
Sample preparation for plasma protein binding was modified from Waters' method. (Waters et al. (2008) J. Pharm. Sci. 97(10): 4586-95). The Teflon base plate with the RED inserts (MWCO 8 K) were allowed to use without any pre-condition the membrane inserts. Human plasma was thawed and centrifuged at 1000 rpm for 2 min to remove any particulates. Each compound was prepared at 10 μM in human plasma. This was done by adding 1 μL, of drug solution (10 mM in DMSO) to 1000 μL, of human plasma (0.1% DMSO). Spiked plasma solutions (300 μL) were placed into the sample chamber (indicated by the red ring) and 500 μL, of DPBS into the adjacent chamber. The plate was sealed and incubated at 37° C. on an orbital shaker (100 rpm) for 4 hours. After incubation, the seal was removed from the RED plate and the volume of the insert confirmed—little to no volume change occurred. Aliquots (50 μL) were removed from each side of the insert and dispensed into a 96-well deep plate. An equal volume of blank plasma or DPBS was added to the required wells to create analytically identical sample matrices (matrix matching). To each sample 200 μL, of ACN containing 4 μg/mL warfarin IS was added. All of the plates were sealed and mixed well at 600 rpm for 10 min and were centrifuged at 4000 rpm for 20 min. The supernatants (120 μL) were transferred to analytical plates for analysis by LCMS. Conditions for Waters ACQUITY-UPLC-MS-UV system were described separately. The test compound concentrations were quantified in both buffer and plasma chambers via peak areas relative to the internal standard. The percentage of the test compound bound to plasma was calculated on following equations: % Free=(Concentration buffer chamber/concentration plasma chamber)×100% and % Bound=100%-% Free.

[2] = Microsomal metabolic stability; type: in vitro ADME, mouse
Description: Compounds were initially prepared by dissolving them into DMSO at a final concentration of 10 mM. NADPH regenerating solutions A and B and mouse liver microsomes (CD-1) were obtained from BD Gentest (Woburn, Mass.). Ninety-six well deep well plates were obtained from MidWest Scientific Inc (Valley Park, Mo.).
Sample preparation for microsomal stability was modified from methods of Di, L., et al., Int J Pharm. 2005 Jun. 13; 297(1-2):110-9. A set of incubation times of 0, 15, 30, 60, 120, and 240 minutes were used. Mouse liver microsomal solutions were prepared by adding 58 μL of concentrated human or mouse liver microsomes (20 mg/mL protein concentration) to 1.756 mL of 0.1 M potassium phosphate buffer (pH 7.4) and 5 μL of 0.5 M EDTA to make a 0.6381 mg/mL (protein) microsomal solution. NADPH regenerating agent contained 113 μL of NADPH A, 23 μL of NADPH B, and 315 μL of 0.1 M potassium phosphate buffer (pH 7.4). The diluted test compound solutions (2 μL) were each added directly to a 1.79 mL of liver microsomal solution. This solution was mixed and 90 μL was transferred to 6 time points plates (each in triplicate wells). For the time 0 plate, 225 μL of cold acetonitrile with internal standard ([…] warfarin) was added to each well, followed by addition of NADPH regenerating agent (22.5 μL) and no incubation. For other five time points' plate, NADPH regenerating agent (22.5 μL) was added to each well to initiate the reaction. The plates were incubated at 37° C. for the required time, followed by quenching of the reaction by adding 225 μL of cold acetonitrile with internal standard (4 μg/ml warfarin). All of the plates were sealed and mixed well at 600 rpm for 10 minutes followed by centrifugation at 4000 rpm for 20 minutes. The supernatants (120 μL) were transferred to analytical plates for analysis by LCMS. LCMS conditions were described in the materials and instrumentation section above. The metabolic stability is evaluated via the half-life from least-squares fit of the multiple time points based on first-order kinetics.

[3] = read-out: Minimal Inhibitory Concentrations (μM) E. faecails, MIC
[4] = USA300, read-out: Minimal Inhibitory Concentrations (μM) S. aureus USA 300, MIC
[5] = read-out: Minimal Inhibitory Concentrations (μM) MRSA NRS70, MIC
[6] = plasma binding, % Bound, human plasma
[7] = microsomal metabolic stability half-life, mouse liver microsomes
[8] = MIC, read-out: Minimal Inhibitory Concentrations (μM) E. faecails
[9] = USA300, MIC, read-out: Minimal Inhibitory Concentrations (μM) S. aureus USA 300
[10] = MIC, read-out: Minimal Inhibitory Concentrations (μM) MRSA NRS70

Structure (SMILES) | MIC (E. faecails; [3]) | MIC (S. aureus USA 300; [4]) | MIC (MRSA NRS70; [5]) | Human [1, 6] | Mouse [2, 7] | MIC (E. faecails; [8]) | MIC (S. aureus USA 300; [9]) | MIC (MRSA NRS70; [10]) | Human ([1]; human, 4 h, pH 7.4) | Mouse ([2]; CD-1, mouse, pH 7.4)
Cc1ccc(NC(=O)N[C@@H](Cc2cccc(C)c2)C(=O)N[C@@H]2C(=O)N3CCC[C@H]3C(=O)N3CCCC[C@H]3C(=O)N[C@@H](C)C(=O)N3C[C@@H](C)C[C@H]3C(=O)O[C@H]2C)cc1 [Compound 45, (S)-3-(M-TOLYL)-2-(3-(P-TOLYL)UREIDO)-N-((2S,6S,8AS,14AS,20S,21S,23AS)-2,6,21-TRIMETHYL-5,8,14,19,23-PENTAOXOOCTADECAHYDRO-1H,5H,14H,19H-PYRIDO[2,1-I]DIPYRROLO[2,1-C:2′,1′-L][1]OXA[4,7,10,13]TETRAAZACYCLOHEXADECIN-20-YL)PROPANAMIDE] ({NH(4-Me-phenyl)-CO}-[Phe(3-Me)][aThr]P[Pip]A[Pro(4S-Me)]; ester 2-C) | 1.25 µM (≈ 0.982 µg/mL) | 10 µM (≈ 7.86 µg/mL) | 1.25 µM (≈ 0.982 µg/mL) | 97.3 ± 0.3% | 2.35 ± 0.14 h | – | – | – | – | –
Cc1cccc(C[C@H](NC(=O)Nc2ccc(Cl)cc2F)C(=O)N[C@@H]2C(=O)N3C[C@H](O)C[C@H]3C(=O)N3CCN(C)C[C@H]3C(=O)N[C@@H](C)C(=O)N3C[C@H](C)C[C@H]3C(=O)O[C@H]2C)c1 [Compound 31, (S)-2-(3-(4-CHLORO-2-FLUOROPHENYL)UREIDO)-N-((6AS,8R,12S,13S,15AS,17R,21S,23AS)-8-HYDROXY-2,13,17,21-TETRAMETHYL-6,11,15,20,23-PENTAOXOOCTADECAHYDRO-2H,6H,11H,15H-PYRAZINO[2,1-I]DIPYRROLO[2,1-C:2′,1′-L][1]OXA[4,7,10,13]TETRAAZACYCLOHEXADECIN-12-YL)-3-(M-TOLYL)PROPANAMIDE] ({NH(4-Cl-2-F-phenyl)-CO}-[Phe(3-Me)][aThr][Hyp][Piperazine(2S-CO,4-Me)]A[Pro(4R-Me)]; ester 2-C) | – | – | – | – | – | < 0.02 µM | 0.078 µM (≈ 0.0667 µg/mL) | < 0.02 µM | 97.9 ± 7.9% | 2.65 ± .655 h
Cc1ccc(NC(=O)N[C@@H](Cc2cccc(C)c2)C(=O)N[C@H]2COC(=O)[C@@H]3C[C@H](C)CN3C(=O)[C@H](C)NC(=O)[C@@H]3CCCCN3C(=O)[C@@H]3CCCN3C2=O)cc1 (stereo in doubt) [Compound 43, (S)—N-((2S,6S,8AS,14AS,20S,23AS)-2,6-DIMETHYL-5,8,14,19,23-PENTAOXOOCTADECAHYDRO-1H,5H,14H,19H-PYRIDO[2,1-I]DIPYRROLO[2,1-C:2′,1′-L][1]OXA[4,7,10,13]TETRAAZACYCLOHEXADECIN-20-YL)-3-(M-TOLYL)-2-(3-(P-TOLYL)UREIDO)PROPANAMIDE] | 2.5 µM (≈ 1.93 µg/mL) | 2.5 µM (≈ 1.93 µg/mL) | 2.5 µM (≈ 1.93 µg/mL) | 72.9 ± 1.4% | 3.57 ± 0.3 h | – | – | – | – | –
Cc1cccc(C[C@H](NC(=O)Nc2ccc3c(c2)OCCO3)C(=O)N[C@@H]2C(=O)N3CCC[C@H]3C(=O)N3CCCC[C@H]3C(=O)N[C@@H](C)C(=O)N3C[C@H](C)C[C@H]3C(=O)O[C@H]2C)c1 [Compound 21, (S)-2-(3-(2,3-DIHYDROBENZO[B][1,4]DIOXIN-6-YL)UREIDO)-3-(M-TOLYL)-N-((2R,6S,8AS,14AS,20S,21S,23AS)-2,6,21-TRIMETHYL-5,8,14,19,23-PENTAOXOOCTADECAHYDRO-1H,5H,14H,19H-PYRIDO[2,1-I]DIPYRROLO[2,1-C:2′,1′-L][1]OXA[4,7,10,13]TETRAAZACYCLOHEXADECIN-20-YL)PROPANAMIDE] ({X3-CO}-[Phe(3-Me)][aThr]P[Pip]A[Pro(4R-Me)]; ester 2-C) | – | – | – | – | – | 0.625 µM (≈ 0.519 µg/mL) | 1.25 µM (≈ 1.04 µg/mL) | 0.313 µM (≈ 0.26 µg/mL) | 97.3 ± 0.1% | 3.38 ± 0.37 h
Cc1ccc(NC(=O)N[C@@H](Cc2cccc(C)c2)C(=O)N[C@@H]2C(=O)N3C[C@H](O)C[C@H]3C(=O)N3CCCC[C@H]3C(=O)N[C@@H](C)C(=O)N3C[C@H](C)C[C@H]3C(=O)O[C@H]2C)cc1 [Compound 26, (S)—N-((2R,6S,8AS,14AS,16R,20S,21S,23AS)-16-HYDROXY-2,6,21-TRIMETHYL-5,8,14,19,23-PENTAOXOOCTADECAHYDRO-1H,5H,14H,19H-PYRIDO[2,1-I]DIPYRROLO[2,1-C:2′,1′-L][1]OXA[4,7,10,13]TETRAAZACYCLOHEXADECIN-20-YL)-3-(M-TOLYL)-2-(3-(P-TOLYL)UREIDO)PROPANAMIDE] ({NH(4-Me-phenyl)-CO}-[Phe(3-Me)][aThr][Hyp][Pip]A[Pro(4R-Me)]; ester 2-C) | 5 µM (≈ 4.01 µg/mL) | 2.5 µM (≈ 2 µg/mL) | 0.313 µM (≈ 0.251 µg/mL) | 98.8 ± 0.1% | 2.49 ± 0.35 h | – | – | – | – | –
Cc1cccc(C[C@H](NC(=O)Nc2ccc(Cl)cc2F)C(=O)N[C@@H]2C(=O)N3CCC[C@H]3C(=O)N3CC(=O)NC[C@H]3C(=O)N[C@@H](C)C(=O)N3C[C@H](C)C[C@H]3C(=O)O[C@H]2C)c1 [Compound 20, (S)-2-(3-(4-CHLORO-2-FLUOROPHENYL)UREIDO)-3-(M-TOLYL)-N-((6AS,12S,13S,15AS,17R,21S,23AS)-13,17,21-TRIMETHYL-3,6,11,15,20,23-HEXAOXOOCTADECAHYDRO-2H,6H,11H,15H-PYRAZINO[2,1-I]DIPYRROLO[2,1-C:2′,1′-L][1]OXA[4,7,10,13]TETRAAZACYCLOHEXADECIN-12-YL)PROPANAMIDE] ({NH(4-Cl-2-F-phenyl)-CO}-[Phe(3-Me)][aThr]P[X4]A[Pro(4R-Me)]; ester 2-C) | – | – | – | – | – | 2.5 µM (≈ 2.1 µg/mL) | 5 µM (≈ 4.2 µg/mL) | 5 µM (≈ 4.2 µg/mL) | 97.5 ± 0.2% | 6.24 ± 0.7 h
Cc1cccc(C[C@H](NC(=O)Nc2ccc3c(c2)OCCO3)C(=O)N[C@H]2COC(=O)[C@@H]3C[C@@H](C)CN3C(=O)[C@H](C)NC(=O)[C@@H]3CCCCN3C(=O)[C@@H]3CCCN3C2=O)c1 [Compound 22, (S)-2-(3-(2,3-DIHYDROBENZO[B][1,4]DIOXIN-6-YL)UREIDO)-N-((2R,6S,8AS,14AS,20S,23AS)-2,6-DIMETHYL-5,8,14,19,23-PENTAOXOOCTADECAHYDRO-1H,5H,14H,19H-PYRIDO[2,1-I]DIPYRROLO[2,1-C:2′,1′-L][1]OXA[4,7,10,13]TETRAAZACYCLOHEXADECIN-20-YL)-3-(M-TOLYL)PROPANAMIDE] | – | – | – | – | – | 1.25 µM (≈ 1.02 µg/mL) | 5 µM (≈ 4.08 µg/mL) | 1.25 µM (≈ 1.02 µg/mL) | 97.1 ± 0.2% | 4.48 ± 0.61 h
